Test results from US11564920B2, “5-heteroaryl-1H-pyrazol-3-amine derivative” (Sumitomo Pharma Co., Ltd., priority 2020, dated 2023).

How the values were obtained:
CHK1 = CHK1 (Homo sapiens (Human), UniProt O14757); assay: CHK1 inhibitory activity test (IMAP TR-FRET); assay type: biochemical; details: for effect of suppressing CHK1 activity (in words): compared with prexasertib; for inhibition at 0.0001 µM: read-out: CHK1 inhibition % at 0.1 nM
Method: IMAP TR-FRET Screening Express Kit (R8160) was obtained from Molecular Devices. […] FAM-PKAtide (R7255, Molecular Devices) and FAM-Phospho-PKAtide (R7304, Molecular Devices) were admixed after dilution, and calibration standard systems for phosphorylation levels from 0 to 100% were created. 5 μL of a compound dissolved in a 0.4% DMSO solution was added to a 384 well plate. A compound study group to which 5 μL of each of CHK1, CHK1tide, and ATP was added, and a standard group to which 20 μL of standard was added were created, and subjected to a kinase reaction for 3 hours at 30° C. Subsequently, 60 μL of Binding Reagent (80% Buffer A, 20% Buffer B, 1:600 Binding Reagent, 1:400 Tb-Donor) was added for a binding reaction for 2 hours at room temperature.

ES-2 cells = assay: Cell growth suppression experiment; assay type: cell-based; details: for IC50: Homo sapiens, 48 h, cultured for 2 days, read-out: IC50 (cell growth suppression, ranking); for cell growth suppression effect (in words): compared with prexasertib
Method: ES-2 cells were obtained from the American Type Culture Collection (ATCC). These cells were cultured at 37° C. in the presence of 5% CO2 in a 10% fetal bovine serum, […] penicillin/streptomycin containing McCoy's 5a medium.
500 cells were seeded for each well in a 384-well plate, and the evaluated compound was added so that the final concentration of DMSO would be 0.1% to culture the cells for 2 days. After completion of the culture, the cell viability rate was calculated using CellTiter-Glo® 3D Reagent (Promega, G968B).

Sequence of CHK1 (O14757 whole entry): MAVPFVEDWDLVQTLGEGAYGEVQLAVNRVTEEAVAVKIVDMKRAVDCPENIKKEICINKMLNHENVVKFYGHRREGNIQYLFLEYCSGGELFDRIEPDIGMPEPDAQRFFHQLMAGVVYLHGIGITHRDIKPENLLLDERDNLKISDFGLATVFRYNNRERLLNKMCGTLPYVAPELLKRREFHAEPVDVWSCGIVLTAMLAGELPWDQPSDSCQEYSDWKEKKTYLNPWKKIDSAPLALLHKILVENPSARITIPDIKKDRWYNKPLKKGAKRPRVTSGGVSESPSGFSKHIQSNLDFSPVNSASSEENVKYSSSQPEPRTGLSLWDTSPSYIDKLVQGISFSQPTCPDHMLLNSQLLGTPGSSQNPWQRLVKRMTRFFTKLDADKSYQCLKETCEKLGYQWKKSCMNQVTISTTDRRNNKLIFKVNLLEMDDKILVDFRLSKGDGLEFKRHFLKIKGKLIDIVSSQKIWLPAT

Structure (SMILES) | effect of suppressing CHK1 activity (in words) (CHK1) | inhibition at 0.0001 µM (CHK1) [%] | IC50 (ES-2 cells) [nM] | cell growth suppression effect (in words) (ES-2 cells) | IC50 (CHK1) [nM]
COc1cncc(OCC2(CN)CC2)c1-c1cc(Nc2cnc(C#N)cn2)n[nH]1 [Example 11, 5-{[5-(3-{[1-(aminomethyl)cyclopropyl]methoxy}-5-methoxypyridin-4-yl)-1H-pyrazol-3-yl]amino}pyrazine-2-carbonitrile] | more potent effect of suppressing CHK1 activity than prexasertib | 35 | < 30 | excellent cell growth suppression effect that is equivalent to that of prexasertib | 
COc1cncc(OC[C@@H](O)CN)c1-c1cc(Nc2cnc(C#N)cn2)n[nH]1 [Example 14, 5-[(5-{3-[(2S)-3-amino-2-hydroxypropoxy]-5-methoxypyridin-4-yl}-1H-pyrazol-3-yl)amino]pyrazine-2-carbonitrile] | more potent effect of suppressing CHK1 activity than prexasertib | 30 | 300 to 1000 |  | 
COc1ccnc(OCCCN)c1-c1cc(Nc2cnc(Cl)cn2)n[nH]1 [Example 15, N-{5-[2-(3-aminopropoxy)-4-methoxypyridin-3-yl]-1H-pyrazol-3-yl}-5-chloropyrazin-2-amine] | more potent effect of suppressing CHK1 activity than prexasertib | 29 | < 30 | excellent cell growth suppression effect that is equivalent to that of prexasertib | 
COc1ncnc(OCCCN)c1-c1cc(Nc2cnc(C#N)cn2)n[nH]1 [Example 17, 5-({5-[4-(3-aminopropoxy)-6-methoxypyrimidin-5-yl]-1H-pyrazol-3-yl}amino)pyrazine-2-carbonitrile] | more potent effect of suppressing CHK1 activity than prexasertib | 24 | < 30 | excellent cell growth suppression effect that is equivalent to that of prexasertib | 0.3
COc1cncc(OCC2CNC2)c1-c1cc(Nc2cnc(C#N)cn2)n[nH]1 [Example 18, 5-({5-[3-(azetidin-3-yl)methoxy-5-methoxypyridin-4-yl]-1H-pyrazol-3-yl}amino)pyrazine-2-carbonitrile] | more potent effect of suppressing CHK1 activity than prexasertib | < 5 | 30 to 100 |  | 
COc1cncc(O[C@@H]2CCC[C@H](N)C2)c1-c1cc(Nc2cnc(C#N)cn2)n[nH]1 [Example 19, 5-{[5-(3-{[(1R,3S)-3-aminocyclohexyl]oxy}-5-methoxypyridin-4-yl)-1H-pyrazol-3-yl]amino}pyrazine-2-carbonitrile] | more potent effect of suppressing CHK1 activity than prexasertib | 20 | < 30 | excellent cell growth suppression effect that is equivalent to that of prexasertib | 
COc1cncc(OC[C@H]2CCNC2)c1-c1cc(Nc2cnc(C#N)cn2)n[nH]1 [Example 21, (S)-5-[(5-{3-methoxy-[5-(pyrrolidin-3-yl)methoxy]pyridin-4-yl}-1H-pyrazol-3-yl)amino]pyrazine-2-carbonitrile] | more potent effect of suppressing CHK1 activity than prexasertib | 15 | < 30 | excellent cell growth suppression effect that is equivalent to that of prexasertib | 
COc1ncnc(OCC2(CN)CC2)c1-c1cc(Nc2cnc(C#N)cn2)n[nH]1 [Example 23, 5-{[5-(4-{[1-(aminomethyl)cyclopropyl]methoxy}-6-methoxypyrimidin-yl)-1H-pyrazol-3-yl]amino}pyrazine-2-carbonitrile] |  | < 5 | < 30 |  | 
N#Cc1cnc(Nc2cc(-c3c(OCF)cncc3OCCCN)[nH]n2)cn1 [Example 24, 5-({5-[3-(3-aminopropoxy)-5-(fluoromethoxy)pyridin-4-yl]-1H-pyrazol-3-yl}amino)pyrazine-2-carbonitrile] | more potent effect of suppressing CHK1 activity than prexasertib | 23 | 300 to 1000 |  | 
